Tests used:
CRTH2 [1] = molecular target: T1, CRTH2 (Homo sapiens, UniProt Q9Y5Y4); assay: DPBS CD11b Antagonist Assay; type: cell-based; conditions: polymorphonuclear cells in PBS with CaCl2/MgCl2; CD11b expression in eosinophils; agonist 15R-Methyl-PGD2 (10 nM)
T1 construct: polymorphonuclear cells (0.5 ml; 10^6/ml cells) in PBS containing 0.9 mM CaCl2 and 0.5 mM MgCl2; endogenous in cells; host or cells: polymorphonuclear cells (eosinophils gated by flow cytometry)
T1 sequence (Q9Y5Y4 1-395): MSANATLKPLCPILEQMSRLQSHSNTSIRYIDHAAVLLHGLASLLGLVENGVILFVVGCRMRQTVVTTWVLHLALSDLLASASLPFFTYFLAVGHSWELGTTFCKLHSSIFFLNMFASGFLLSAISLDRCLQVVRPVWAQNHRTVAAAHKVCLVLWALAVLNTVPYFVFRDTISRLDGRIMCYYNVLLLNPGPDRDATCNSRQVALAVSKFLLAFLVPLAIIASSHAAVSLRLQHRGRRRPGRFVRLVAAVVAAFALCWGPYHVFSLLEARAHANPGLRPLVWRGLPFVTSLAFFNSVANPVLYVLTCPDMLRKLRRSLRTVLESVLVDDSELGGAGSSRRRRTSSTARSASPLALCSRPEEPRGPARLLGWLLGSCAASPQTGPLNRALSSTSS
Experimental: DPBS CD11b Antagonist Assay
The potential CRTH2 antagonist activity of certain compounds was tested using a CD11b expression assay using essentially the method described by Monneret et al. (J Pharmacol Exp Ther 304:349-55, 2003). Briefly, polymorphonuclear cells (0.5 ml; 10^6/ml cells) in PBS containing 0.9 mM CaCl2 and 0.5 mM MgCl2) were preincubated with various concentrations of test compounds at room temperature for 10 minutes before they were challenged with the agonist 15R-Methyl-PGD2 (10 nM). The incubations were terminated by the addition of ice-cold FACSFlow (BD Biosciences; Cat#342003) and centrifugation (400 g for 5 minutes at 4° C.). The cells were then incubated for 30 minutes at 4° C. with a mixture of PE-labeled mouse anti-human VLA-4 (5 μl; BD Biosciences) and FITC-labeled mouse anti-human CD11b (10 μl; Beckman Coulter). The cells were then incubated with Optilyse C (0.25 ml; Beckman Coulter) for 15 minutes, centrifuged, and then fixed in PBS (0.4 ml; calcium and magnesium free) containing 1% formaldehyde. The distribution of fluorescence intensities among 60,000 cells was measured by flow cytometry. Eosinophils were gated out on the basis of their granularity (high side scatter) and labeling with VLA-4 (PE fluorescence). CD11b was then measured in the eosinophil region on the basis of fluorescence due to FITC. All data were corrected for the value obtained for the corresponding isotope control antibody.

CRTH2 [2] = molecular target: T1, CRTH2; assay: Human Whole Blood CD11b Antagonist Assay; type: cell-based; conditions: CD11b expression in eosinophils, agonist 15R-Methyl-PGD2 (10 nM)
Experimental: Human Whole Blood CD11b Antagonist Assay (Modified from Nicholson, et al. Pulmonary Pharmacology and Therapeutics: 20 (2007); 52-59)
The potential CRTH2 antagonist activity of certain compounds was tested in human whole blood using an assay that tests the ability of the compounds to block the CD11b expression in eosinophils by 15-R-methyl-PGD2. A CRTH2 antagonist should block CD11b expression by subsequently added 15-Methyl-PGD2. Human whole blood ([…]) was incubated at 37° C. for 10 minutes in the presence of various concentrations of test compounds before being challenged with the agonist 15R-Methyl-PGD2 (10 nM). Reactions were terminated by the addition of ice-cold PBS+0.5% BSA+2 mM EDTA (1 mL) and centrifugation (300×g for 5 minutes at 4° C.) Cells were then incubated at 4° C. for 10 min in the presence of human IgG. Cells were then incubated for 30-45 min with a mixture of PE-Cy5-labeled mouse anti-human CD16 (10 ul; BD Biosciences) and FITC-labeled mouse anti-human CD11b (10 μL; Beckman Coulter.) After rinsing (1 mL ice-cold PBS+0.5% BSA+2 mM EDTA), red blood cells were lysed by the addition of 1 mL ice-cold H2O to the cell pellet for 30 sec-1 min immediately followed by the addition of 3.5% NaCl (300 μL.) Cells were then rinsed (2×−1 ml ice cold PBS+0.5% BSA+2 m MEDTA) and fixed in PBS containing 1% formaldehyde. The distribution of fluorescence intensities was measured by flow cytometry. Eosinophils were gated out on the basis of their granularity (high side scatter) and absence of CD-16. CD11b was then measured on this eosinophil population on the basis of fluorescence due to FITC.

Compound	IC50 (CRTH2 [1])	IC50 (CRTH2 [2])
Cc1c(Cc2ccccc2S(=O)(=O)N2CCCC2)c2scnc2n1CC(=O)O [Compound I-2, 2-(5-Methyl-6-(2-(pyrrolidin-1-ylsulfonyl)benzyl)-4H-pyrrolo[2,3-d]thiazol-4-yl)acetic acid]	100 to 500 nM	–
Cc1c(Cc2ccccc2S(=O)(=O)N2CCCC2)c2sccc2n1CC(=O)O [Compound I-4, 2-(5-Methyl-6-(2-(pyrrolidin-1-ylsulfonyl)benzyl)-4H-thieno[3,2-b]pyrrol-4-yl)acetic acid]	1 to 5 nM	20 to 100 nM
Cc1c(Cc2ccccc2S(=O)(=O)N2CCOCC2)c2scnc2n1CC(=O)O [Compound I-5, 2-(5-Methyl-6-(2-(morpholinosulfonyl)benzyl)-4H-pyrrolo[2,3-d]thiazol-4-yl)acetic acid]	3000 to 5000 nM	3000 to 5000 nM

Results, then the compound that gave them:

IC50 (CRTH2 [1])	IC50 (CRTH2 [2])	Compound
< 1 nM	20 to 100 nM	Cc1c(Cc2ccccc2S(=O)(=O)N2CCCC2)c2ccsc2n1CC(=O)O [Compound I-1, 2-(5-Methyl-4-(2-(pyrrolidin-1-ylsulfonyl)benzyl)-6H-thieno[2,3-b]pyrrol-6-yl)acetic acid]
< 1 nM	5 to 20 nM	Cc1c(Cc2ccccc2S(=O)(=O)c2ccccc2)c2ccsc2n1CC(=O)O [Compound I-3, 2-(5-Methyl-4-(2-(phenylsulfonyl)benzyl)-6H-thieno[2,3-b]pyrrol-6-yl)acetic acid]
< 1 nM	5 to 20 nM	Cc1c(Cc2ccccc2S(=O)(=O)N2CCOCC2)c2ccsc2n1CC(=O)O [Compound I-6, 2-(5-Methyl-4-(2-(morpholinosulfonyl)benzyl)-6H-thieno[2,3-b]pyrrol-6-yl)acetic acid]
